Results: ChEMBL document CHEMBL5370643, “Discovery of MK-1468: A Potent, Kinome-Selective, Brain-Penetrant Amidoisoquinoline LRRK2 Inhibitor for the Potential Treatment of Parkinson's Disease” (J Med Chem, 2023)
In brackets after ≈: the same amount, converted by molar mass.

Key:
[1] = Toxicity in Wistar-Han rat assessed as degeneration of seminiferous epithelium in testes at 750 mg/kg, po administered once daily for 7 days; type: organism-based; settings: in vivo, 168 h, time 7 day
[2] = Toxicity in Wistar-Han rat assessed as histopathological change at 750 mg/kg, po administered once daily for 7 days; type: organism-based; settings: in vivo, 168 h, time 7 day
[3] = Toxicity in Wistar-Han rat assessed as body weight loss at 750 mg/kg, po administered once daily for 7 days; type: organism-based; settings: in vivo, 168 h, time 7 day
[4] = biological target: Leucine-rich repeat serine/threonine-protein kinase 2 (Homo sapiens, UniProt Q5S007, G2019S); assay: Inhibition of recombinant N-terminal GST-fused LRRK2 […] mutant (970 to 2527 residues) (unknown origin) using LRRKtide peptide as substrate assessed as inhibition of substrate phosphorylation preincubated with compound for 15 mins followed by substrate addition and measured after 90 mins in presence of ATP by TR-FRET assay
Sequence of Leucine-rich repeat serine/threonine-protein kinase 2 (Q5S007 whole entry G2019S, the tested form may be a part): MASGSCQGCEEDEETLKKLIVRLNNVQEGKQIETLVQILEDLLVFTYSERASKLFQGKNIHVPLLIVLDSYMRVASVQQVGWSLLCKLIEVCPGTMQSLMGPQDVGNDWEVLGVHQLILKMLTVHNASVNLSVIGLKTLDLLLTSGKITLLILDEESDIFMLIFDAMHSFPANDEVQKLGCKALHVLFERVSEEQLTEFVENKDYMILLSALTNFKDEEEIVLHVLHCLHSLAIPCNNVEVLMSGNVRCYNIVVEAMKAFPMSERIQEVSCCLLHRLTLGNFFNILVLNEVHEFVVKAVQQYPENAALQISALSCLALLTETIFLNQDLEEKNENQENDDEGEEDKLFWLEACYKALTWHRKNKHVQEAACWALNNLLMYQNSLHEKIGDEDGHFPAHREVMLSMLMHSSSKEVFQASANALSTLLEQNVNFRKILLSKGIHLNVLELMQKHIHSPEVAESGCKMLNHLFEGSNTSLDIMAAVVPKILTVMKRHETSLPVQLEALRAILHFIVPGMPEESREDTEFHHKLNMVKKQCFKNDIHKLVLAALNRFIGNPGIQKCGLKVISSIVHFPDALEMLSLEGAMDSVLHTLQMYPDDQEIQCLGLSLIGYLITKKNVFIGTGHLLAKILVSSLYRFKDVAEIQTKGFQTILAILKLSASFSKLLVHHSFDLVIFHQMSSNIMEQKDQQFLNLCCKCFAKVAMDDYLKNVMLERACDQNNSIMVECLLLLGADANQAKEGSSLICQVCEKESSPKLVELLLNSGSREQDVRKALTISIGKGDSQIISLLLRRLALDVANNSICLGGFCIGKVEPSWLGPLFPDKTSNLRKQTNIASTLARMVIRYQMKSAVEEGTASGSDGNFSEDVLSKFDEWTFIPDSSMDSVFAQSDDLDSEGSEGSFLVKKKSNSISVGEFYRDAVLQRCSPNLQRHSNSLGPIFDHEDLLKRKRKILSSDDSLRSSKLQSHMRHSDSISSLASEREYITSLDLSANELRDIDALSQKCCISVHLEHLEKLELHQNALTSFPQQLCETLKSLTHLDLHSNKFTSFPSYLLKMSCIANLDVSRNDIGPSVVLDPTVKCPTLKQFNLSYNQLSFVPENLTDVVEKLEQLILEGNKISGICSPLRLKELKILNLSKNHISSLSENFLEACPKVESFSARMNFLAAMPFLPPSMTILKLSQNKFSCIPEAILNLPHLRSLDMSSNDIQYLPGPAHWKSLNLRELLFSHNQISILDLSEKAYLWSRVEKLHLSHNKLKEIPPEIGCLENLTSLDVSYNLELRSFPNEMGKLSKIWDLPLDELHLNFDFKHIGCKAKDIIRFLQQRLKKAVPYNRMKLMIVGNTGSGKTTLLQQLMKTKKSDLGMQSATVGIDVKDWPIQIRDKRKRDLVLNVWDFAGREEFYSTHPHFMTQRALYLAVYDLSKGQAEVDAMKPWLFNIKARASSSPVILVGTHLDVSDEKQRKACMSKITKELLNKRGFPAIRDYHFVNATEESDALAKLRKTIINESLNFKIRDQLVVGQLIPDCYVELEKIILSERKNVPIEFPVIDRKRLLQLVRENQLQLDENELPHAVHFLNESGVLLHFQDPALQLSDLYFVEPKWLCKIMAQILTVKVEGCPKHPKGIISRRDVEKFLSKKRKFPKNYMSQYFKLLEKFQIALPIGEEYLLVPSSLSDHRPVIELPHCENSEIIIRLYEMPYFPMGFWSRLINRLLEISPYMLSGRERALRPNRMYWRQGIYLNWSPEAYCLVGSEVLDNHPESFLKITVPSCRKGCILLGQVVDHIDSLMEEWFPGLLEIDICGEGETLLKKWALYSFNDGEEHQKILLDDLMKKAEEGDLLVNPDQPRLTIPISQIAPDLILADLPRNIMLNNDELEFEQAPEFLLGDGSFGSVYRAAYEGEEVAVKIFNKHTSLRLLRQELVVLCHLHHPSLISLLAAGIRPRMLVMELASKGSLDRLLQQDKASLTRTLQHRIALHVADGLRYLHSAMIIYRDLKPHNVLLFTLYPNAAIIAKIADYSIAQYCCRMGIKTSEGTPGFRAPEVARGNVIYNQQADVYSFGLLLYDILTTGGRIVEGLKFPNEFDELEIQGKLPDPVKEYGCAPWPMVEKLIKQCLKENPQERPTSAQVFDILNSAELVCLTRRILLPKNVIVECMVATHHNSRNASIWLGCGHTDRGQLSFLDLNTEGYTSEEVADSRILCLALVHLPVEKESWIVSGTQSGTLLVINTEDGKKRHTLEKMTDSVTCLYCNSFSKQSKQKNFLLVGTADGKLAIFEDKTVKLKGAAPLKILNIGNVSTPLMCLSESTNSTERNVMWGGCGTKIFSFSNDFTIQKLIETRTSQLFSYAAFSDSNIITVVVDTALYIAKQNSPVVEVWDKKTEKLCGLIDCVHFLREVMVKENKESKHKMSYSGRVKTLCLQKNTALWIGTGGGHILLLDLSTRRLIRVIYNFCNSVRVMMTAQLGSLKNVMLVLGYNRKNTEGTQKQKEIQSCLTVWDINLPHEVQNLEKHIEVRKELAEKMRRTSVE

[5] = MRT in Wistar-Han rat at 3 mg/kg, iv measured after 24 hrs by LC-MS/MS analysis; type: ADME, organism-based; settings: in vivo
[6] = Total clearance in rhesus monkey at 3 mg/kg, iv measured after 24 hrs by LC-MS/MS analysis; type: ADME, organism-based, Macaca mulatta; settings: in vivo
[7] = Intrinsic clearance in rhesus monkey at 3 mg/kg, iv measured after 24 hrs by LC-MS/MS analysis; type: ADME, organism-based, Macaca mulatta; settings: in vivo
[8] = MRT in Beagle dog at 0.5 mg/kg, iv measured after 24 hrs by LC-MS/MS analysis; type: ADME, organism-based, Canis lupus familiaris; settings: in vivo
[9] = Oral bioavailability in rhesus monkey at 10 mg/kg measured after 24 hrs by LC-MS/MS analysis; type: ADME, organism-based, Macaca mulatta; settings: in vivo
[10] = Protein binding in dog plasma incubated for 4 hrs by equilibrium dialysis method; type: ADME, cell-free, Canis lupus familiaris; settings: read-out: PPB (converted)
[11] = Kinetic solubility of compound in PBS at pH 2 measured after 24 hrs by UPLC/DAD analysis; type: physicochemical; settings: read-out: Kinetic_solubility
[12] = Mutagenicity in Salmonella typhimurium TA1535 at 30 to 5000 ug/plate incubated for 48 hrs in absence of Wistar-Han rat S9 fraction by Ames test; type: toxicity; settings: salmonella enterica subsp. enterica serovar typhimurium, s9, 48 h
[13] = Mutagenicity in Salmonella typhimurium TA98 at 30 to 5000 ug/plate incubated for 48 hrs in absence of Wistar-Han rat S9 fraction by Ames test; type: toxicity; settings: salmonella enterica subsp. enterica serovar typhimurium, s9, 48 h
[14] = Mutagenicity in Salmonella typhimurium TA100 at 30 to 5000 ug/plate incubated for 48 hrs in absence of Wistar-Han rat S9 fraction by Ames test; type: toxicity; settings: salmonella enterica subsp. enterica serovar typhimurium, s9, 48 h
[15] = Unbound drug concentration in guinea pig plasma at 5 mg/kg, iv administered continuously for 20 mins; type: ADME, organism-based, Cavia porcellus; settings: in vivo
[16] = Unbound drug concentration in guinea pig plasma at 20 mg/kg, iv administered continuously for 20 mins; type: ADME, organism-based, Cavia porcellus; settings: in vivo
[17] = Cardiotoxicity in guinea pig assessed as effect on heart rate at 5 to 20 mg/kg, iv administered continuously for 20 min by ECG analysis; type: toxicity, organism-based, Cavia porcellus; settings: in vivo, dose 5-20 mg/kg
[18] = Genotoxicity in CHO-WBL cells incubated for 3 to 24 hrs in presence or absence of rat liver S9 fraction by micronucleus assay; type: toxicity, Cricetulus griseus; settings: chinese hamster, time 3-24 hrs
[19] = AUC (0 to 24 hrs) in Wistar-Han rat at 48 mg administered twice a day by LC-MS/MS analysis; type: ADME; parameters: dose 48 mg; settings: in vivo
[20] = Cmax in Wistar-Han rat at 48 mg administered twice a day by LC-MS/MS analysis; type: ADME; parameters: dose 48 mg; settings: in vivo
[21] = Toxicity in Wistar-Han rat assessed as effect on diastolic blood pressure at 60 mg/kg, po administered as single dose and measured upto 24 hrs by telemetric analysis; type: organism-based; settings: in vivo
[22] = Toxicity in Wistar-Han rat assessed as effect on mean blood pressure at 60 mg/kg, po administered as single dose and measured upto 24 hrs by telemetric analysis; type: organism-based; settings: in vivo
[23] = Toxicity in Wistar-Han rat assessed as effect on heart rate at 60 mg/kg, po administered as single dose and measured upto 24 hrs by telemetric analysis; type: organism-based; settings: in vivo
[24] = Toxicity in Wistar-Han rat assessed as effect on body temperature at 60 mg/kg, po administered as single dose and measured upto 24 hrs by telemetric analysis; type: organism-based; settings: in vivo
[25] = Toxicity in Wistar-Han rat assessed as effect on spontaneous locomotor activity at 60 mg/kg, po administered as single dose and measured upto 24 hrs by telemetric analysis; type: organism-based; settings: in vivo
[26] = Toxicity in Wistar-Han rat assessed as effect on arterial pulse pressure at 225 mg/kg, po administered as single dose and measured upto 24 hrs by telemetric analysis; type: organism-based; settings: in vivo
[27] = Toxicity in Wistar-Han rat assessed as effect on body temperature at 225 mg/kg, po administered as single dose and measured upto 24 hrs by telemetric analysis; type: organism-based; settings: in vivo
[28] = Toxicity in po dosed Wistar-Han rat assessed as NOAEL measured upto 24 hrs; type: organism-based; settings: in vivo, read-out: Activity
[29] = AUC in Wistar-Han rat at 40 mg/kg, po administered once daily for 7 days; type: ADME, organism-based; parameters: dose 40 mg/kg, time 7 day, route po; settings: in vivo
[30] = AUC in Wistar-Han rat at 750 mg/kg, po administered once daily for 7 days; type: ADME, organism-based; parameters: dose 750 mg/kg, time 7 day, route po; settings: in vivo
[31] = Toxicity in Wistar-Han rat assessed as clinical observations at 750 mg/kg, po administered once daily for 7 days; type: organism-based; settings: in vivo, 168 h, time 7 day
[32] = Toxicity in Wistar-Han rat assessed as squamous hyperplasia of nonglandular stomach at 750 mg/kg, po administered once daily for 7 days; type: organism-based; settings: in vivo, 168 h, time 7 day
[33] = Toxicity in Wistar-Han rat assessed as NOAEL measured after 7 days; settings: in vivo, time 7 day
[34] = Toxicity in Wistar-Han rat assessed as micronucleus induction in bone marrow at 40 to 750 mg/kg, po administered once daily for 7 days by micronucleus test; type: organism-based; settings: in vivo, 168 h, dose 40-750 mg/kg, time 7 day
[35] = Toxicity in rhesus monkey assessed as tolerance at 100 to 800 mg/kg, po administered once daily for 7 days; type: organism-based, Macaca mulatta; settings: in vivo, 168 h, dose 100-800 mg/kg, time 7 day
[36] = AUC in rhesus monkey at 800 mg/kg, po administered once daily for 7 days; type: ADME, organism-based, Macaca mulatta; parameters: time 7 day, dose 800 mg/kg, route po; settings: in vivo
[37] = Toxicity in rhesus monkey assessed as body weight loss at 100 to 800 mg/kg, po administered once daily for 7 days; type: organism-based, Macaca mulatta; settings: in vivo, 168 h, dose 100-800 mg/kg, time 7 day
[38] = Toxicity in rhesus monkey assessed as lung type II pneumocyte hypertrophy at 200 to 800 mg/kg, po administered once daily for 7 days; type: organism-based, Macaca mulatta; settings: in vivo, 168 h, dose 200-800 mg/kg, time 7 day
[39] = In vivo inhibition of LRRK2 in rhesus monkey assessed as reduction in Ser935 phosphorylation in blood PBMC at 100 to 800 mg/kg, po administered once daily for 7 days; type: functional, Macaca mulatta; settings: dose 100-800 mg/kg, time 7 day
[40] = In vivo inhibition of LRRK2 in rhesus monkey assessed as reduction in Ser935 phosphorylation in brain at 100 to 800 mg/kg, po administered once daily for 7 days; type: functional, Macaca mulatta; settings: dose 100-800 mg/kg, time 7 day

C[C@@]1(N2CCN(c3cc4cc(NC(=O)[C@H]5CC56CCOCC6)ncc4cc3Cl)CC2)COC[C@@H]1O
Activity [1]: Toxic | Activity [2]: Non-Toxic | Activity [3]: Toxic | IC50 [4]: 0.4 nM | MRT [5]: 2.2 h | clearance [6]: 22 mL/min/kg | CL [7]: 736 mL/min/kg | MRT [8]: 29 h | bioavailability [9]: 9% | fraction unbound at 4 h [10]: 0.13 | solubility kinetic at 24 h [11]: 182 µM (≈ 91.2 µg/mL) | Activity [12]: Non-Toxic | Activity [13]: Non-Toxic | Activity [14]: Non-Toxic | Cp(f) [15]: 1290 nM | Cp(f) [16]: 11900 nM | Activity [17]: Non-Toxic | Activity [18]: Non-Toxic | AUC [19]: 6 µM·h | Cmax [20]: 750 nM | Activity [21]: Non-Toxic | Activity [22]: Non-Toxic | Activity [23]: Non-Toxic | Activity [24]: Non-Toxic | Activity [25]: Non-Toxic | Activity [26]: Non-Toxic | Activity [27]: Non-Toxic | NOAEL at 24 h [28]: 60 mg/kg | AUC at 168 h [29]: 8.1 µM·h | AUC at 168 h [30]: 395 µM·h | Activity [31]: Non-Toxic | Activity [32]: Toxic | NOAEL at 168 h [33]: 225 mg/kg/day | Activity [34]: Non-Toxic | Activity [35]: Non-Toxic | AUC at 168 h [36]: 63 µM·h | Activity [37]: Non-Toxic | Activity [38]: Toxic | fIC50 [39]: 4.7 nM | fIC50 [40]: 7 nM
